The values below are quoted from earlier work in patent publication US7419990B2, “Piperidine derivatives as melanocortin-4 receptor agonists” (Merck & Co., Inc., priority 2003, dated 2008).

One series relates to erectile dysfunction. The following applies: for duration of effect / onset of action: after an oral dose; for share of patients with adequate response: oral.
Series [1] has as its system psychogenic erectile dysfunction.

Consider `CCCc1nn(C)c2c(=O)[nH]c(-c3cc(S(=O)(=O)N4CCN(C)CC4)ccc3OCC)nc12` [sildenafil], for which, in the series on erectile dysfunction, the duration of effect result is given as “about 4 hours”, the onset of action was 30 to 60 min and the “share of patients with adequate response” value is “about 70%”.
With “Ac-Nle-c[Asp-His-DPhe-Arg-Trp-Lys]-NH2 [MT-II]”, in series [1] (in vivo), the duration of action entry is given as “approximately 2.5 hours” and the “time to onset of erection” value was 10 to 20 min. The response rate in series [1] (injected intramuscularly or subcutaneously) is recorded as 75%. In addition, in series [1] (oral route), the “absorption into the systemic circulation” value was “not absorbed into the systemic circulation”.
As to `Cc1ccc(N(CC2=NCCN2)c2cccc(O)c2)cc1` [phentolamine], in the series on erectile dysfunction, the duration of effect was 2 h, the onset of action is 5 to 30 min and the “share of patients with adequate response” value is reported as 35-40%.
